# Data from publication PMC7044277 (Nature Communications, 2020).
# Where “and” joins values, the source holds several entries; their conditions need not be identical. Equal entries are not always repeated.
# Columns and labels:
# Type in all cases: cell-based
# 320 non-olfactory GPCRs [1] = biological target: T1, 320 non-olfactory GPCRs (Homo sapiens, UniProt P50391); settings: receptor NPY4R; replicate values, Fig_4g
# T1 construct: expressed in transfected cells; host or cells: HTLA cells
# 320 non-olfactory GPCRs [2] = biological target: T2, 320 non-olfactory GPCRs (Homo sapiens, UniProt Q86VZ1); settings: receptor P2RY8; replicate values, Fig_4g
# T2 construct: expressed in transfected cells; host or cells: HTLA cells
# T2 sequence (Q86VZ1 whole entry): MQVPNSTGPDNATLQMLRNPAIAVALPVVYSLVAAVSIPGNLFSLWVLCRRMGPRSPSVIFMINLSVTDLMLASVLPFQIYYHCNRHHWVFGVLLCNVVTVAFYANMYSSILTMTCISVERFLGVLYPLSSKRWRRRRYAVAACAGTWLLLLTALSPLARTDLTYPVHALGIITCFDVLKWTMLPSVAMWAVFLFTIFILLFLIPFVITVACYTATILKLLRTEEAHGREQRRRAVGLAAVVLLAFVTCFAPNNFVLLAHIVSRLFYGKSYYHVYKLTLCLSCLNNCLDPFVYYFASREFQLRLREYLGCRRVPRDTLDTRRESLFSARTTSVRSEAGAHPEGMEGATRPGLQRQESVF
# 320 non-olfactory GPCRs [3] = biological target: 320 non-olfactory GPCRs (Homo sapiens, UniProt P07550)
# Chain of 320 non-olfactory GPCRs (Homo sapiens, UniProt P07550) (P07550 whole entry): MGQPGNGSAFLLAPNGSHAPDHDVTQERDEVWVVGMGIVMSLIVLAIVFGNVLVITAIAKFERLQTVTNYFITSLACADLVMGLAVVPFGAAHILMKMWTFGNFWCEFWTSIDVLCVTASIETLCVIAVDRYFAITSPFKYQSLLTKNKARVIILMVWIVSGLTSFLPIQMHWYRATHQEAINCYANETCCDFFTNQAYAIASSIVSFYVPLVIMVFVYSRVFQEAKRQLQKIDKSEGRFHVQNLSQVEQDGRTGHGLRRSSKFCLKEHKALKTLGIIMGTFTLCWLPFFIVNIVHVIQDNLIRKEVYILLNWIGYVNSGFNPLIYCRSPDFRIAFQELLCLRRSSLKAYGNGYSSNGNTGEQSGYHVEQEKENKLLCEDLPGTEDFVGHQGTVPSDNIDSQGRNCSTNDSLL
# 320 non-olfactory GPCRs [4] = biological target: 320 non-olfactory GPCRs (Homo sapiens, UniProt P35414)
# Chain of 320 non-olfactory GPCRs (Homo sapiens, UniProt P35414) (P35414 whole entry): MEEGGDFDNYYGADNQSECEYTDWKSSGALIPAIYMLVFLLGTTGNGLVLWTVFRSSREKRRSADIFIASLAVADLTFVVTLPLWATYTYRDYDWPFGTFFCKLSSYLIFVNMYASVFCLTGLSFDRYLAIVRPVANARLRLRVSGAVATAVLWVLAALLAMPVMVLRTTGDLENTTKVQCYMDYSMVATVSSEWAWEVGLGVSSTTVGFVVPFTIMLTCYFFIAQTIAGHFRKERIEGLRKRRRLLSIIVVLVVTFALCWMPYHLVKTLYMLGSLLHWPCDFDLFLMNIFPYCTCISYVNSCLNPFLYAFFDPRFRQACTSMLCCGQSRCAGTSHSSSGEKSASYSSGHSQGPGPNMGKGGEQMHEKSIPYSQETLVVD
# 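Throughout, for Fold of Basal: compound tested at 1 µM final concentration.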
# 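Throughout, for GPCRome agonism screen response: fold over basal response of each receptor without drug.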
# T1 sequence (P50391 whole entry): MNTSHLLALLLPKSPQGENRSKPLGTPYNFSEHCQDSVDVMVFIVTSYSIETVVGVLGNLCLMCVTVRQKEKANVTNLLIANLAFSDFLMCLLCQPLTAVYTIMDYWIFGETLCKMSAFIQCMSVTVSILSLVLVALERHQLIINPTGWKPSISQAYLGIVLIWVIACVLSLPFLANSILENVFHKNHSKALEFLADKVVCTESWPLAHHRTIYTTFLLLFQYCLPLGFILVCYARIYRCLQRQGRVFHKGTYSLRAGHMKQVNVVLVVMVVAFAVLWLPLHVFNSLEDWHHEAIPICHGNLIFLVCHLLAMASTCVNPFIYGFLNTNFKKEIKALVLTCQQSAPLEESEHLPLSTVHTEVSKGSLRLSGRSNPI
structure (smiles),measurement,setting,value
CCOc1cccc2cc(C(C)NCC3(O)CCCCC3)oc12 (stereo not shown) [O4LE6],GPCRome agonism screen response,320 non-olfactory GPCRs [1],0.9177 and 0.7118 and 1.258 and 0.6362
same,GPCRome agonism screen response,320 non-olfactory GPCRs [2],0.862 and 0.8339 and 1.83 and 1.383
same,Fold of Basal,320 non-olfactory GPCRs [3],0.7944 and 1.208 and 1.018 and 0.6397
same,Fold of Basal,320 non-olfactory GPCRs [4],1.057 and 1.1216 and 0.9447 and 1.032
